In a melting point compilation (Tetko et al.; mined from patent text by program, amines drawn as free bases though some values may be those of a salt):

SMILES | melting point [°C]
COc1cc2c(Nc3ccc(Sc4nccn4C)c(Cl)c3)c(C#N)cnc2cc1F | 295 to 297
C=C1C=CC=C1Cc1ccc(O)cc1 | 143 to 144
CCOC(=O)Cc1cccc(S(=O)(=O)c2ccccc2)c1[N+](=O)[O-] | 105 to 106
CC(C)Sc1c(N)cccc1C#N | 82
CN(C)CCCCCCc1nn(CC(N)=O)c(-c2ccccc2)c1-c1ccccc1 | 60 to 63
CCCCCCCCCCOc1cc(OCCCCCCCCCC)cc(N(CC(=O)O)CC(=O)O)c1 | 110 to 114
OC(c1ccccc1)c1ccc2c(c1)N1CCN=C1S2 (stereo not given) | 175
CCCCN(CCCC)c1ccc(C=Cc2ccc(C=CC3=C(C#N)C(=C(C#N)C#N)OC3(C)C)s2)c(OCc2ccccc2)c1 | 218 to 219
CN1CC(CO)CC2(OCCCO)c3cccc4[nH]cc(c34)CC12 (stereo not given) | 189 to 195
CC(=NOCCOc1ccc(CC2SC(=O)NC2=O)cc1)c1ccc(Cl)cc1 (stereo not given) | 118 to 119
CCC=C(Cc1ccc(Cl)cc1Cl)n1cncn1 | 127
O=[N+]([O-])c1ccc(CCc2nccs2)cc1 | 92 to 93
Cc1ccc(-c2ccc3nnn(Cc4ccc5ncccc5c4)c3n2)s1 | 154 to 156
C=C(C)C(=O)NC(C)C | 89
Cc1c(S(=O)(=O)Nc2ccc(-c3nc(CO)cs3)cc2S(C)(=O)=O)sc2ccc(F)cc12 | 209 to 210
Cc1c(C(=O)c2cnn(C(C)(C)C)c2O)ccc(S(C)(=O)=O)c1-c1ccc(S(C)(=O)=O)cc1 | 187 to 188
Cc1oc(-c2ccccc2)nc1COc1ccc(OCc2ncccc2CC(=O)O)cc1 | 126 to 127
Nc1ccc(CCC(=O)Nc2cnc3ccccc3c2)cc1[N+](=O)[O-] | 220
CCOC(=O)C1=C(COCc2nnn(CCNS(C)(=O)=O)n2)NC(C)=C(C(=O)OC)C1c1cccc(Cl)c1Cl (stereo not given) | 245 to 247
Cc1nnc(-c2ccc3ccn(-c4ccc(S(C)(=O)=O)cc4)c3c2)o1 | 228 to 229
CC(C)[Si](C#Cc1ccc(-c2nc3cc(C#N)c(C#N)cc3[nH]2)cc1)(C(C)C)C(C)C | 347 to 348
CC(=O)N[C@H](Cc1ccc(C(=O)c2ccccc2)cc1)C(=O)O | 186 to 187
O=C(O)CC1CCC2(CC1)OOC1(O2)C2CC3CC(C2)CC1C3 (stereo not given) | 146 to 148

SMILES | melting point [°C]
CCOc1nc(C(F)(F)C(F)(F)F)cc(=O)n1-c1cc(O)c(Cl)cc1F | 117 to 120
FC(F)(F)c1nc(-c2ccccc2)c(-c2ccccc2)c(N2CCN(c3ccccn3)CC2)n1 | 165 to 167
CCCCn1c(C)c(C(=O)NC2CCN(CCc3ccccc3)CC2)c2cc(O)ccc21 | 178 to 181
COc1ccc(-n2nc(OC(C)C)cc2-c2ccc(OCCO)cc2)cn1 | 74 to 75
Cc1cnc(NCCc2ccccn2)c(=O)n1NC(=O)CCc1cc(C(F)(F)F)ccc1F | 181 to 184
CC(=O)Nc1c(C(O)(C(F)(F)F)C(F)(F)F)cc(Cl)c2ccccc12 | 161 to 162
O=C1N(Cc2ccc(=O)[nH]c2)c2ccccc2C12COc1cc3c(cc12)OCO3 (stereo not given) | 247 to 250
Cc1oc(-c2ccc(C(F)(F)F)cc2)nc1COc1ccc(S(=O)(=O)Cl)cc1 | 90 to 93
O=C(Nc1ccc2c(c1)CCN(Cc1ccccc1)C2)c1ccccc1-c1ccc(C(F)(F)F)cc1 | 230 to 232
CCOC(=O)c1ncn2c1CN=C(c1ccccc1)c1cc(C#CC(C)(C)C)ccc1-2 | 155 to 156
CCCCc1nc(Cl)c(CC(=O)O)n1Cc1ccc(OCc2ccccc2C(=O)O)cc1 | 170 to 172
CC(CCc1cc2cccnc2n(-c2cccc(N)c2)c1=O)c1ccncc1 (stereo not given) | 83 to 91
COc1ccc(C(O)CCN2CC=C(c3ccc(Cl)cc3)CC2)cc1 (stereo not given) | 116 to 118
CCOC(=O)c1c(N=Cc2ccc(-c3cccs3)s2)sc(N=Cc2ccc(-c3cccs3)s2)c1C(=O)OCC | 130 to 132
CCCc1c(Cl)nc(NC=O)nc1Cl | 92 to 94
CC(C)CC(NC(=O)Cc1ccc(NC(=O)Nc2ccccn2)cc1)c1ncc(C(C)C(=O)O)s1 (stereo not given) | 173 to 175
N#Cc1c(F)cccc1Nc1c(F)cccc1F | 145 to 146
CCCCCS(=O)(=O)NC(=O)CCCc1cc(OCCCC)nn1Cc1ccc(Cl)cc1Cl | 121 to 122
CCCCCCCCCCCCCCCCCCOc1cc(C(=O)O)cc([N+](=O)[O-])c1 | 101 to 103
CCCN1C(=O)c2cccnc2NS1(=O)=O | 208 to 210
CC(C)C(NC(=O)Cn1cc(Cc2ccccc2)cc(NC(=O)OCc2ccccc2)c1=O)C(=O)C(F)(F)F (stereo not given) | 58 to 64
COC(=O)NNC(=O)C(F)(F)F | 105
Nc1ccccc1Cn1[nH]c2ccccc2c1=O | 204 to 205

Other lines, results leading:

melting point [°C] | SMILES
36 to 44 | CCOC(=O)C(C)Oc1ccc(OCc2ccccc2)cc1 (stereo not given)
242 to 243 | Cc1c(-c2ccncc2)nc2n(c1=O)CCCN2
180 | COc1ccc(-c2nc(C)c(C(N)=O)s2)cc1
47 to 48 | COc1ccc(C(=O)CCCCCBr)cc1F
165 | COCCCNC(=O)c1ccc(-c2cc(-c3c(-c4cccc(C)n4)nc4ccccn34)ccn2)cc1
71 | C=CCc1cc(CC(=O)OC)ccc1OCc1ccc2ccccc2n1
109 to 112 | Cc1ccc([N+](=O)[O-])c(C)c1C(=O)O
108 to 111 | COc1ccc(C2COCCOC2)c2sc(NC(=O)c3ccnc(CN4CCCC4)c3)nc12
120 to 122 | O=C(CC1C2=C(CCCC2)C(=O)N1c1ccc(Cl)cc1)N1CCCCC1 (stereo not given)
186 to 188 | CCC(=O)Nc1nc(-c2ccc(OC(F)F)cc2)cs1
215 to 218 | CC(=O)n1[nH]c(=O)n(-c2ccccc2)c1=O
244 to 246 | COc1ccccc1-n1c(=O)[nH]c2c(C(N)=O)nc(C3CCCC3)nc21
102 to 106 | O=C(O)CC1CCCN(C(=O)c2ccc(NC(=O)COc3ccccc3)cc2)c2ccccc21 (stereo not given)
276 | CC(=O)N(C)C1Cc2ccc(C(=O)Cn3cnc4cc(-c5ccc(Cl)cc5)sc4c3=O)cc2C1 (stereo not given)
122 to 124 | CCOC(=O)c1ccc(NCCCc2ccc(Cl)cc2)cc1
159 to 162 | COCCSc1sc(-c2cc[nH]n2)c2c1C(=O)CC(C)(C)C2
189 to 191 | O=C(O)c1ncoc1-c1ccoc1
182 | CCOC(=O)NC(C)Cn1cc(-c2ccccc2)c2ccccc2c1=O (stereo not given)
135 to 136 | COc1ccc(-c2nn(CC3CC3)c(=O)cc2-c2ccc(OC)c(F)c2)cc1
75 to 77 | CCOC(=O)C1=C(C)NC(C(OCC)OCC)=C(C(=O)OCC)C1c1ccccc1Cl (stereo not given)
152 to 154 | CC(CN1CCN(c2ccc(C(=O)O)cc2)CC1)Oc1ccccc1 (stereo not given)
151 to 152 | COc1ccc(O)c(C2C(=O)N(Cc3ccc(C(F)(F)F)o3)c3cccc(Cl)c32)n1 (stereo not given)
122 to 125 | Cc1cc(SC2=C(O)CC(CCc3cccnc3)(C(C)C)OC2=O)c(C(C)(C)C)cc1CO (stereo not given)
158 to 160 | CC1(N2C(=O)c3cccc(NCc4ccco4)c3C2=O)CCC(=O)NC1=O (stereo not given)
241 to 242 | CS[C@@H]1CC[C@H](C(=O)O)Cc2onc(-c3ccc(Cl)cc3)c21 (relative stereo)
142 to 144 | CCOC(=O)c1c(C)cc2c(c1C)C(=O)OCC2=O
150 to 153 | NNC(=O)OCC1c2ccccc2-c2ccccc21

melting point [°C] | SMILES
45 to 46 | Cc1cc(CCCCCCCOc2ccc(C(=O)OC(C)C)cc2)on1
153 to 155 | COc1ccc(C(=O)Nc2c(Cl)cncc2Cl)cc1OC1CCCC1
70 to 71 | CCC(=O)c1cnc(C(=O)C(C)C)cn1
131 to 132 | COc1cccc(NC(=O)COC(C)=O)c1C#N
92 to 93 | COC(=O)C(=O)NC(=O)N1CCCCC1
99 to 101 | Cc1cc(Oc2c(Cl)cc(C(F)(F)F)cc2Cl)nn1C(=O)NCCN1CCOCC1
194 to 196 | CCC1(C(=O)C(C(O)C(Cl)(Cl)Cl)n2cncn2)CCCC1 (stereo not given)
46 | CON(C(=O)c1ccoc1C)C1CCCCC1
72 to 74 | COC(=O)C=Cc1ccc(OC)c(OC)c1
109 to 111 | COc1ccc2c(c1)C(CCNC(=O)C(F)(F)F)C(c1ccccc1)C2 (stereo not given)
160 to 161 | CC(C)(CC(=O)C(=O)Nc1ccc2c(c1)COC2=O)c1cccc(I)c1
85 to 87 | O=C(CCl)c1ccc2c(c1)CCO2
96 to 110 | CNC(=O)c1cc(N(C)C)ccc1Nc1nc(Nc2cc3c(cc2OC)CCN(CC(=O)N(C)C)CC3)ncc1Cl
120 to 124 | CCc1ccc2c(c1)C1CN(C(=O)CCC(=O)c3ccc(F)cc3)CCC1N2 (stereo not given)
75 to 82 | CCn1c(-c2ccc3c(c2)OCCO3)cc(=Nc2c(C)cc(C)cc2C)n(C)c1=O
156 to 158 | COc1cccc(NC(=O)/C=C(\C)c2cc3cccc(OCCCC(=O)O)c3o2)c1
220 to 221 | Cc1cc(OCc2cccc(C(=O)O)c2)c([N+](=O)[O-])cc1S(=O)(=O)N(C)C
155 to 158 | CCNC(=NC(=Nc1ccccc1)N1CCOCC1)C(C)C
151 | Cc1cc(Cl)cc(OC2=NS(=O)(=O)CS2)c1
107 to 109 | COc1cccc(N2CCN(C[C@H](CC3CCCCC3)NC(=O)C3CCCCC3)CC2)n1
111 to 114 | CCCc1nc(N)c(C(=O)OCC)[nH]1
103 to 105 | O=C(Nc1ccc(Oc2ccnc(NCC3CCCO3)n2)c2ccccc12)c1cc(F)cc(N2CCOCC2)c1 (stereo not given)
108 to 110 | CCOC(=O)C(=CN(C)c1cnsn1)C(=O)c1cc(F)c(Cl)nc1Cl
143 to 145 | CSc1sc(-c2ccno2)c2c1C(=O)CC(C)(C)C2
82 to 84 | O=C(Nc1ccc(F)cc1F)Oc1ccccc1
120 to 121 | CC(C)c1nccc2c(CO)cccc12
228 to 230 | CCCNC(=O)c1ccc2c(c1)C(=O)NC(C(Cl)(Cl)Cl)O2 (stereo not given)
